In US12110293B2, “Substituted triazolo quinoxaline derivatives” (GRÜNENTHAL GMBH, priority 2018, dated 2024) one finds IC50 or EC50 (agonist or antagonist mode not specified) data, which are given here for 27 molecules.

In this assay the target is T1, glucocorticoid receptor (Homo sapiens, UniProt P04150).
T1 construct: expressed in transfected cells
T1 sequence (P04150 524-758 limits assumed): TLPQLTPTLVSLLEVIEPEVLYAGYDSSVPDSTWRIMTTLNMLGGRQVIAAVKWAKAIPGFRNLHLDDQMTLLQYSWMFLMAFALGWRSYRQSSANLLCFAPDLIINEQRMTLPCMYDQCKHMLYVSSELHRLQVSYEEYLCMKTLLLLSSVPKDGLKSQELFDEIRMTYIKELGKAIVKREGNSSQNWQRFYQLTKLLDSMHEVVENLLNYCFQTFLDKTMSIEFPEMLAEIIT
Nature of the assay: Agonistic mode of action on the glucocorticoid receptor (CHO-Gal4/GR luciferase reporter cell line). Format: cell-based. The following applies: range class observed in the agonistic assay or the antagonistic assay (CHO-Gal4/GR reporter cells); table does not say which mode applies per example. The gist of the method:
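CHO cells stably carrying GAL4 DBD–GR ligand-binding-domain fusion and GAL4-UAS firefly luciferase reporter, 5000 cells/well grown 24 h, then compounds added in Opti-MEM at 8 half-log concentrations from 10 μM to 0.003 μM (0.5% DMSO), quadruplicates. Agonist-induced luminescence read on FLIPR Tetra; EC50 calculated.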
(Reporter assays use an easily measured gene product as a stand-in for the process of interest.)
`Cc1nnc2n1-c1c(cc(F)c(-c3cccc4c3ccn4CCO)c1C(F)(F)F)NC2(C)C` [Example 456, 2-[4-[7-Fluoro-1,4,4-trimethyl-9-(trifluoromethyl)-5H-[1,2,4]triazolo[4,3-a]quinoxalin-8-yl]-1H-indol-1-yl]-ethanol] gave an IC50 or EC50 (agonist or antagonist mode not specified) of 100 to 1000 nM.

With `Cc1c(-c2cccc3c2cnn3S(C)(=O)=O)ccc2c1-n1c(C)nnc1C(C)(C)N2` [Example 457, 1,4,4,9-Tetramethyl-8-(1-methylsulfonyl-1H-indazol-4-yl)-5H-[1,2,4]triazolo[4,3-a] quinoxaline], the IC50 or EC50 (agonist or antagonist mode not specified) was in the range of 100 to 1000 nM.

For `Cc1c(-c2cc(F)cc3c(C)c[nH]c23)c(OC(F)(F)F)cc2c1-n1c(C)nnc1C(C)(C)N2` [Example 458, 8-(5-Fluoro-3-methyl-1H-indol-7-yl)-1,4,4,9-tetramethyl-7-(trifluoromethyloxy)-5H-[1,2,4]triazolo[4,3-a]quinoxaline], the IC50 or EC50 (agonist or antagonist mode not specified) fell in the range of 100 to 1000 nM.

`COc1cc2c(c(C(F)(F)F)c1-c1cc(F)cc3c(C)c[nH]c13)-n1c(C)nnc1C(C)(C)N2` [Example 459, 8-(5-Fluoro-3-methyl-1H-indol-7-yl)-7-methoxy-1,4,4-trimethyl-9-(trifluoromethyl)-5H-[1,2,4]triazolo[4,3-a]quinoxaline] showed an IC50 or EC50 (agonist or antagonist mode not specified) of under 100 nM.

Consider `COCCn1ccc2c(-c3c(OC(F)(F)F)cc4c(c3C)-n3c(C)nnc3C(C)(C)N4)cccc21` [Example 460, 8-[1-(2-Methoxy-ethyl)-1H-indol-4-yl]-1,4,4,9-tetramethyl-7-(trifluoromethyloxy)-5H-[1,2,4]triazolo[4,3-a]quinoxaline], for which the IC50 or EC50 (agonist or antagonist mode not specified) lay in the range of 100 to 1000 nM.

In the case of `CCS(=O)(=O)n1ccc2c(-c3c(F)cc4c(c3C(F)F)-n3c(C)nnc3C(C)(C)N4)cccc21` [Example 461, 9-(Difluoro-methyl)-8-[1-(ethylsulfonyl)-1H-indol-4-yl]-7-fluoro-1,4,4-trimethyl-5H-[1,2,4] triazolo[4,3-a]quinoxaline], the IC50 or EC50 (agonist or antagonist mode not specified) is under 100 nM.

`Cc1nnc2n1-c1c(cc(F)c(-c3cccc4c3ccn4S(C)(=O)=O)c1C1CC1)NC2(C)C` [Example 462, 9-Cyclopropyl-7-fluoro-1,4,4-trimethyl-8-(1-methylsulfonyl-1H-indol-4-yl)-5H-[1,2,4]triazolo [4,3-a]quinoxaline] had an IC50 or EC50 (agonist or antagonist mode not specified) of under 100 nM.

In turn, `Cc1c[nH]c2c(-c3c(F)cc4c(c3C3CC3)-n3c(C)nnc3C(C)(C)N4)cccc12` [Example 463, 9-Cyclopropyl-7-fluoro-1,4,4-trimethyl-8-(3-methyl-1H-indol-7-yl)-5H-[1,2,4]triazolo[4,3-a] quinoxaline] registered an IC50 or EC50 (agonist or antagonist mode not specified) of under 100 nM.

`Cc1c(-c2cccc3c2ccn3S(C)(=O)=O)c(OC(F)(F)F)cc2c1-n1c(C)nnc1C(C)(C)N2` [Example 465, 1,4,4,9-Tetramethyl-8-(1-methylsulfonyl-1H-indol-4-yl)-7-(trifluoromethyloxy)-5H-[1,2,4]triazolo[4,3-a]quinoxaline] yielded an IC50 or EC50 (agonist or antagonist mode not specified) of under 100 nM.

The molecule `Cc1nnc2n1-c1c(cc(F)c(-c3cc(F)cc4[nH]ccc34)c1C(F)F)NC2(C)C` [Example 466, 9-(Difluoro-methyl)-7-fluoro-8-(6-fluoro-1H-indol-4-yl)-1,4,4-trimethyl-5H-[1,2,4]triazolo [4,3-a]quinoxaline] returned an IC50 or EC50 (agonist or antagonist mode not specified) of under 100 nM.

As for `Cc1nnc2n1-c1c(cc(F)c(-c3cccc4[nH]ccc34)c1C(F)(F)F)NC2(C)C` [Example 467, 7-Fluoro-8-(1H-indol-4-yl)-1,4,4-trimethyl-9-(trifluoromethyl)-5H-[1,2,4]triazolo[4,3-a]quinoxaline], the IC50 or EC50 (agonist or antagonist mode not specified) is under 100 nM.

`COc1c(-c2cc(F)cc3[nH]ccc23)c(F)cc2c1-n1c(C)nnc1C(C)(C)N2` [Example 468, 7-Fluoro-8-(6-fluoro-1H-indol-4-yl)-9-methoxy-1,4,4-trimethyl-5H-[1,2,4]triazolo[4,3-a]quinoxaline] came in with an IC50 or EC50 (agonist or antagonist mode not specified) of under 100 nM.

The molecule `Cc1c(-c2cc(F)cc3c2cnn3CC(F)F)c(OC(F)(F)F)cc2c1-n1c(C)nnc1C(C)(C)N2` [Example 469, 8-[1-(2,2-Difluoro-ethyl)-6-fluoro-1H-indazol-4-yl]-1,4,4,9-tetramethyl-7-(trifluoromethyloxy)-5H-[1,2,4]triazolo[4,3-a]quinoxaline] yielded an IC50 or EC50 (agonist or antagonist mode not specified) of 100 to 1000 nM.

As for `Cc1c(-c2cc(C(F)(F)F)cc3[nH]ccc23)c(F)cc2c1-n1c(C)nnc1C(C)(C)N2` [Example 470, 7-Fluoro-1,4,4,9-tetramethyl-8-[6-(trifluoromethyl)-1H-indol-4-yl]-5H-[1,2,4]triazolo[4,3-a]quinoxaline], the IC50 or EC50 (agonist or antagonist mode not specified) is 100 to 1000 nM.

For `Cc1c(-c2cc(F)cc3c2ccn3CCO)c(OC(F)(F)F)cc2c1-n1c(C)nnc1C(C)(C)N2` [Example 471, 2-[6-Fluoro-4-[1,4,4,9-tetramethyl-7-(trifluoromethyloxy)-5H-[1,2,4]triazolo[4,3-a]quinoxalin-8-yl]-1H-indol-1-yl]-ethanol], the IC50 or EC50 (agonist or antagonist mode not specified) is 100 to 1000 nM.

As for `Cc1nnc2n1-c1c(cc(F)c(-c3cc(F)cc4c3cnn4CC(F)F)c1C(F)F)NC2(C)C` [Example 472, 8-[1-(2,2-Difluoro-ethyl)-6-fluoro-1H-indazol-4-yl]-9-(difluoro-methyl)-7-fluoro-1,4,4-trimethyl-5H-[1,2,4]triazolo[4,3-a]quinoxaline], the IC50 or EC50 (agonist or antagonist mode not specified) was under 100 nM.

Regarding `Cc1nnc2n1-c1c(cc(F)c(-c3cc(C(F)(F)F)cc4[nH]ccc34)c1C(F)(F)F)NC2(C)C` [Example 473, 7-Fluoro-1,4,4-trimethyl-9-(trifluoromethyl)-8-[6-(trifluoromethyl)-1H-indol-4-yl]-5H-[1,2,4]triazolo[4,3-a] quinoxaline], the IC50 or EC50 (agonist or antagonist mode not specified) was in the range of 100 to 1000 nM.

`COc1c(-c2cc(C(F)(F)F)cc3[nH]ccc23)c(F)cc2c1-n1c(C)nnc1C(C)(C)N2` [Example 474, 7-Fluoro-9-methoxy-1,4,4-trimethyl-8-[6-(trifluoromethyl)-1H-indol-4-yl]-5H-[1,2,4]triazolo[4,3-a] quinoxaline] came in with an IC50 or EC50 (agonist or antagonist mode not specified) of 100 to 1000 nM.

In the case of `Cc1c(-c2cc(C(F)(F)F)cc3[nH]ccc23)c(Cl)cc2c1-n1c(C)nnc1C(C)(C)N2` [Example 475, 7-Chloro-1,4,4,9-tetramethyl-8-[6-(trifluoromethyl)-1H-indol-4-yl]-5H-[1,2,4]triazolo[4,3-a]quinoxaline], the IC50 or EC50 (agonist or antagonist mode not specified) lay within 100 to 1000 nM.

`Cc1cc(-c2c(F)cc3c(c2C(F)(F)F)-n2c(C)nnc2C(C)(C)N3)c2ccn(S(C)(=O)=O)c2c1` [Example 476, 7-Fluoro-1,4,4-trimethyl-8-(6-methyl-1-methylsulfonyl-1H-indol-4-yl)-9-(trifluoromethyl)-5H-[1,2,4]triazolo [4,3-a]quinoxaline] came in with an IC50 or EC50 (agonist or antagonist mode not specified) of 100 to 1000 nM.

`COc1c(-c2cc(C)cc3c2ccn3S(C)(=O)=O)c(F)cc2c1-n1c(C)nnc1C(C)(C)N2` [Example 477, 7-Fluoro-9-methoxy-1,4,4-trimethyl-8-(6-methyl-1-methylsulfonyl-1H-indol-4-yl)-5H-[1,2,4]triazolo[4,3-a]quinoxaline] came in with an IC50 or EC50 (agonist or antagonist mode not specified) of 100 to 1000 nM.

The molecule `Cc1cc(-c2c(F)cc3c(c2C(F)F)-n2c(C)nnc2C(C)(C)N3)c2ccn(S(C)(=O)=O)c2c1` [Example 478, 9-(Difluoro-methyl)-7-fluoro-1,4,4-trimethyl-8-(6-methyl-1-methylsulfonyl-1H-indol-4-yl)-5H-[1,2,4]triazolo[4,3-a]quinoxaline] came in with an IC50 or EC50 (agonist or antagonist mode not specified) of 100 to 1000 nM.

`Cc1nnc2n1-c1c(cc(F)c(-c3cc(C#N)cc4[nH]ccc34)c1C(F)(F)F)NC2(C)C` [Example 479, 4-[7-Fluoro-1,4,4-trimethyl-9-(trifluoromethyl)-5H-[1,2,4]triazolo[4,3-a]quinoxalin-8-yl]-1H-indole-6-carbonitrile] displayed an IC50 or EC50 (agonist or antagonist mode not specified) of 100 to 1000 nM.

For the molecule `COCCn1ncc2c(-c3c(OC(F)(F)F)cc4c(c3C)-n3c(C)nnc3C(C)(C)N4)cc(F)cc21` [Example 480, 8-[6-Fluoro-1-(2-methoxy-ethyl)-1H-indazol-4-yl]-1,4,4,9-tetramethyl-7-(trifluoromethyloxy)-5H-[1,2,4]triazolo[4,3-a]quinoxaline], the IC50 or EC50 (agonist or antagonist mode not specified) lay in the range of 100 to 1000 nM.

`Cc1nnc2n1-c1c(cc(F)c(-c3cccc4c3ccn4C)c1C(F)F)NC2(C)C` [Example 481, 9-(Difluoro-methyl)-7-fluoro-1,4,4-trimethyl-8-(1-methyl-1H-indol-4-yl)-5H-[1,2,4]triazolo[4,3-a] quinoxaline] yielded an IC50 or EC50 (agonist or antagonist mode not specified) of 100 to 1000 nM.

For `COc1cc2c(c(C(F)(F)F)c1-c1cc(F)cc3c(C4CC4)c[nH]c13)-n1c(C)nnc1C(C)(C)N2` [Example 482, 8-(3-Cyclopropyl-5-fluoro-1H-indol-7-yl)-7-methoxy-1,4,4-trimethyl-9-(trifluoromethyl)-5H-[1,2,4]triazolo[4,3-a]quinoxaline], the IC50 or EC50 (agonist or antagonist mode not specified) was under 100 nM.

Consider `COc1c(-c2cc(F)cc3c(C4CC4)c[nH]c23)c(F)cc2c1-n1c(C)nnc1C(C)(C)N2` [Example 483, 8-(3-Cyclopropyl-5-fluoro-1H-indol-7-yl)-7-fluoro-9-methoxy-1,4,4-trimethyl-5H-[1,2,4]triazolo[4,3-a] quinoxaline], for which the IC50 or EC50 (agonist or antagonist mode not specified) was under 100 nM.
